Toxic doses and inconclusive results are not listed. How the source made its calls: active means survival T/C of 150% or more; inactive means T/C below 125% in these data.
Test system: CD2F1 mice, L1210 leukemia ip, survival T/C
Assay: NCI In Vivo Anticancer Drug Screen. Data for tumor model L1210 Leukemia (intraperitoneal) in CD2F1 (CDF1) mice
Settings: endpoint: mean survival time, schedule: Q01DX009 (ip), higher = longer survival
In short: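 Each value reflects a quotient of treated over vehicle control outcomes in mice with a transplanted tumor.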

[1] = dose: 12.5 mg/kg/injection, vehicle: saline with Tween-80
[2] = dose: 25.0 mg/kg/injection, vehicle: saline with Tween-80
[3] = dose: 50.0 mg/kg/injection, vehicle: saline with Tween-80

Measured: T/C

Cc1cc(Cl)ccc1NC(=O)Nc1nccs1
inactive: [1] 98 % of control | [2] 98 % of control | [3] 95 % of control | dose: 100.0 mg/kg/injection, vehicle: saline with Tween-80 95 % of control | dose: 200.0 mg/kg/injection, vehicle: saline with Tween-80 100 % of control

O=C(OCC1CC=CC1)C1CC=CC1
inactive: [1] 104 % of control | [2] 95 % of control | [3] 98 % of control

CCC[CH2][Sn]([CH2]C)([CH2]C)[O]C(C)=O
inactive: dose: 2.5 mg/kg/injection, vehicle: saline with Tween-80 104 % of control | dose: 5.0 mg/kg/injection, vehicle: saline with Tween-80 102 % of control

Nc1cc(=S)c2nnn(C3OC(CO)C(O)C3O)c2[nH]1 (stereo not given)
inactive: dose: 25.0 mg/kg/injection, vehicle: water 100 % of control | dose: 50.0 mg/kg/injection, vehicle: water 104 % of control | dose: 100.0 mg/kg/injection, vehicle: water 93 % of control | dose: 200.0 mg/kg/injection, vehicle: water 86 % of control | dose: 400.0 mg/kg/injection, vehicle: water 89 % of control
